Results: the supplement of paper PMC10307832

Legend:
Experiment in all cases: relative viability (nuclei count vs DMSO), 5 days (fraction); higher = more cells survive
[1] = compound: CC1=C(C(=NN1)C)CC2=C(C3=C(S2)N(C(=O)N(C3=O)C)CC(C)C)C(=O)N4C[C@@H](CO4)O + CC1(C)CCC(c2ccc(Cl)cc2)=C(CN2CCN(c3ccc(C(=O)NS(=O)(=O)c4ccc(N[C@H](CCN5CCOCC5)CSc5ccccc5)c(S(=O)(=O)C(F)(F)F)c4)cc3)CC2)C1 [Navitoclax] (partner 0.5 µM)
Outline: (§1)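 Relative viability divides the nuclei count in treated wells by that in vehicle wells. Lung cancer cell lines were seeded in 1536-well plates, dosed by pin tool the next day, and fixed and stained after 5 days in one step with final 0.05% Triton X-100, 1% formaldehyde and 1 ug/ml Hoechst. Dosing was a single drug or a fixed anchor-drug dose plus five library-drug doses (not always all listed) in √10 steps, and values are medians of duplicate plates imaged at 4×.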

[2] = compound: CC1=C(C(=NN1)C)CC2=C(C3=C(S2)N(C(=O)N(C3=O)C)CC(C)C)C(=O)N4C[C@@H](CO4)O + CS(=O)(=O)CCNCc1ccc(-c2ccc3ncnc(Nc4ccc(OCc5cccc(F)c5)c(Cl)c4)c3c2)o1 [Lapatinib] (partner 2 µM)
Outline: as §1

[3] = compound: Cc1ccccc1C(C(=O)NC1CCCCC1)N(C(=O)Cn1ccnc1C)c1cccc(F)c1 [IDH-C35] + CCNC(=O)c1noc(-c2cc(C(C)C)c(O)cc2O)c1-c1ccc(CN2CCOCC2)cc1 [Luminespib] (partner 0.01 µM)
Outline: as §1

[4] = compound: Cc1ccccc1C(C(=O)NC1CCCCC1)N(C(=O)Cn1ccnc1C)c1cccc(F)c1 [IDH-C35] + Cc1nc(Nc2ncc(C(=O)Nc3c(C)cccc3Cl)s2)cc(N2CCN(CCO)CC2)n1 [Dasatinib] (partner 0.075 µM)
Outline: as §1

| Cell Line | relative viability ([1]; first compound 0.0025 µM) | relative viability ([1]; first compound 0.007906 µM) | relative viability ([1]; first compound 0.025 µM) | relative viability ([1]; first compound 0.07906 µM) | relative viability ([1]; first compound 0.25 µM) | relative viability ([2]; first compound 0.0025 µM) | relative viability ([2]; first compound 0.007906 µM) | relative viability ([2]; first compound 0.025 µM) | relative viability ([2]; first compound 0.07906 µM) | relative viability ([2]; first compound 0.25 µM) | relative viability ([3]; first compound 0.08 µM) | relative viability ([3]; first compound 0.253 µM) | relative viability ([3]; first compound 0.8 µM) | relative viability ([3]; first compound 2.53 µM) | relative viability ([3]; first compound 8 µM) | relative viability ([4]; first compound 0.08 µM) | relative viability ([4]; first compound 0.253 µM) | relative viability ([4]; first compound 0.8 µM) | relative viability ([4]; first compound 2.53 µM) | relative viability ([4]; first compound 8 µM) |
| --- | --- | --- | --- | --- | --- | --- | --- | --- | --- | --- | --- | --- | --- | --- | --- | --- | --- | --- | --- | --- |
| PC-3 [JPC-3] | 0.898 | 0.795 | 0.83 | 0.827 | 0.906 | 0.475 | 0.411 | 0.501 | 0.522 | 0.427 | 0.737 | 0.596 | 0.728 | 0.771 | 0.692 | 1 | 0.923 | 1.02 | 0.989 | 0.972 |
| NCI-H2228 | 0.955 | 0.961 | 1.15 | 1 | 1.14 | 1.03 | 1.02 | 1.37 | 0.961 | 1.34 | 0.213 | 0.152 | 0.111 | 0.184 | 0.155 | 0.571 | 0.526 | 0.509 | 0.53 | 0.537 |
| HOP-62 | 1.15 | 1.03 | 0.857 | 1.08 | 0.857 | 1.05 | 0.946 | 1.05 | 0.952 | 1.08 | 0.944 | 0.849 | 0.822 | 0.923 | 0.927 | 0.712 | 0.624 | 0.6 | 0.638 | 0.622 |
| HARA | 1.26 | 1.2 | 1.07 | 1.1 | 1.15 | 0.664 | 0.81 | 0.637 | 0.671 | 0.696 | 0.783 | 0.761 | 0.637 | – | 0.617 | 0.298 | 0.271 | 0.294 | – | 0.328 |
| NCI-H838 | 1.22 | 1.24 | 1.12 | 1.16 | 1.25 | 1.03 | 1.06 | 0.907 | 0.778 | 0.96 | 0.319 | 0.3 | 0.266 | 0.331 | 0.24 | 0.343 | 0.303 | 0.298 | 0.32 | 0.303 |
| NCI-H1755 | 1.05 | 1.03 | 1 | 1 | 1.06 | 1.04 | 0.919 | 1.02 | 1.04 | 1.07 | 0.535 | 0.365 | 0.454 | 0.412 | 0.715 | 0.374 | 0.409 | 0.433 | 0.409 | 0.465 |
| NCI-H322M | 1.22 | 1.18 | 1.18 | 1.29 | 1.06 | 0.626 | 0.605 | 0.601 | 0.55 | 0.524 | 0.921 | 0.784 | 0.826 | 0.833 | 0.942 | 0.244 | 0.253 | 0.26 | 0.247 | 0.243 |
| NCI-H3122 | 1.02 | 1.04 | 0.996 | 1.01 | 0.995 | 1.06 | 1.03 | 1.01 | 0.993 | 1.02 | 0.0958 | 0.105 | 0.0707 | 0.106 | 0.0868 | 0.725 | 0.487 | 0.56 | 0.865 | 0.777 |
